Test results from patent US6737383B1, “Herbicidal oxadiazolidines” (priority 1999, dated 2004).

Legend:
[1] = tested on: purple nutsedge; assay: Test B pre/postemergence purple nutsedge; type: in vivo, Cyperus rotundus
In short: (§1)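 Response is a visual 0-to-10 score relative to untreated plants, where 0 means no effect and 10 means complete control, taken twelve to sixteen days after application. Treatments went onto soil at planting and onto foliage of 1- to 4-leaf plants, using a surfactant-containing non-phytotoxic solvent.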

[2] = tested on: surinam grass; assay: Test B pre/postemergence surinam grass; type: in vivo, Brachiaria decumbens
In short: as §1

[3] = tested on: cocklebur; assay: Test B pre/postemergence cocklebur; type: in vivo, Xanthium strumarium
In short: as §1

[4] = tested on: morningglory; assay: Test B pre/postemergence morningglory; type: in vivo, Ipomoea hederacea
In short: as §1

[5] = tested on: blackgrass; assay: Test B pre/postemergence blackgrass; type: in vivo, Alopecurus myosuroides
In short: as §1

[6] = tested on: giant foxtail; assay: Test B pre/postemergence giant foxtail; type: in vivo, Setaria faberii
In short: as §1

[7] = tested on: sugar beet; assay: Test B pre/postemergence sugar beet; type: in vivo, Beta vulgaris
In short: as §1

[8] = tested on: wild oat; assay: Test B pre/postemergence wild oat; type: in vivo, Avena fatua
In short: as §1

[9] = tested on: corn; assay: Test B pre/postemergence corn; type: in vivo, Zea mays
In short: as §1

[10] = tested on: crabgrass; assay: Test B pre/postemergence crabgrass; type: in vivo, Digitaria sanguinalis
In short: as §1

[11] = tested on: bedstraw; assay: Test B pre/postemergence bedstraw; type: in vivo, Galium aparine
In short: as §1

[12] = tested on: wheat; assay: Test B pre/postemergence wheat; type: in vivo, Triticum aestivum
In short: as §1

[13] = tested on: rice; assay: Test B flood test rice; type: in vivo, Oryza sativa
In short: (§2)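 Flood test on plants grown to the 2-leaf stage; treated plants kept in greenhouse twelve to sixteen days, then visually rated against controls on a 0 (no effect) to 10 (complete control) scale.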

[14] = tested on: bamyardgrass; assay: Test B flood test barnyardgrass; type: in vivo, Echinochloa crus-galli
In short: as §2

[15] = tested on: rape; assay: Test B pre/postemergence rape; type: in vivo, Brassica napus
In short: as §1

[16] = tested on: pigweed; assay: Test B pre/postemergence pigweed; type: in vivo, Amaranthus retroflexus
In short: as §1

[17] = Postemergence, Rate 62 g/ha, scale 0 to 10, 0 is no effect, 10 is complete control
[18] = Postemergence, Rate 250 g/ha, scale 0 to 10, 0 no effect, 10 complete control
[19] = Preemergence, Rate 62 g/ha, scale 0 to 10, 0 is no effect, 10 is complete control
[20] = Preemergence, Rate 125 g/ha, scale 0 to 10 (0 no effect, 10 complete control)
[21] = Preemergence, Rate 250 g/ha, scale of 0 to 10 where 0 is no effect and 10 is complete control
[22] = Preemergence, Rate 500 g/ha, scale 0 (no effect) to 10 (complete control)
[23] = Rate 125 g/ha, Postemergence, scale 0 to 10, 0 no effect, 10 complete control
[24] = Rate 500 g/ha, Postemergence, 0 to 10 scale (0 no effect, 10 complete control)
[25] = Rate 125 g/ha, Postemergence section (flood test species), scale 0 to 10, 0 no effect, 10 complete control
[26] = Rate 500 g/ha, Postemergence section of Table B, 0 to 10 scale (0 no effect, 10 complete control)
[27] = flood test, listed under Postemergence, Rate 250 g/ha, scale 0 to 10, 0 no effect, 10 complete control

CCc1ccccc1-n1c(=O)on(C(=O)N(c2ccc(F)cc2)C(C)C)c1=O [Compound 34]
7: Wild oats plant response rating [8, 22] | Plant response rating, Crabgrass [10, 19] | Plant response rating, Crabgrass [10, 20] | Bedstraw plant response rating [11, 24] | Redroot pigweed plant response rating [16, 24]
5: Morningglory plant response rating [4, 18] | Plant response rating, Blackgrass [5, 20]
9: Blackgrass plant response rating [5, 24] | Crabgrass plant response rating [10, 24]
6: Blackgrass plant response rating [5, 18] | Plant response rating, Blackgrass [5, 21] | Blackgrass plant response rating [5, 22] | Plant response rating, Giant foxtail [6, 20] | Bedstraw plant response rating [11, 18] | Redroot pigweed plant response rating [16, 18] | Plant response rating, Redroot pigweed [16, 21] | Redroot pigweed plant response rating [16, 22]
0: Nutsedge plant response rating [1, 17] | Nutsedge plant response rating [1, 18] | Plant response rating, Nutsedge [1, 19] | Plant response rating, Nutsedge [1, 20] | Plant response rating, Nutsedge [1, 21] | Nutsedge plant response rating [1, 22] | Nutsedge plant response rating [1, 23] | Nutsedge plant response rating [1, 24] | B. signalgrass plant response rating [2, 17] | B. signalgrass plant response rating [2, 18] | Plant response rating, B. signalgrass [2, 19] | B. signalgrass plant response rating [2, 23] | B. signalgrass plant response rating [2, 24] | Cocklebur plant response rating [3, 17] | Cocklebur plant response rating [3, 18] | Plant response rating, Cocklebur [3, 19] | Plant response rating, Cocklebur [3, 20] | Plant response rating, Cocklebur [3, 21] | Cocklebur plant response rating [3, 22] | Cocklebur plant response rating [3, 23] | Plant response rating, Morningglory [4, 19] | Plant response rating, Morningglory [4, 20] | Plant response rating, Morningglory [4, 21] | Morningglory plant response rating [4, 22] | Blackgrass plant response rating [5, 17] | Giant foxtail plant response rating [6, 17] | Giant foxtail plant response rating [6, 23] | Sugarbeets plant response rating [7, 17] | Sugarbeets plant response rating [7, 18] | Plant response rating, Sugarbeets [7, 19] | Plant response rating, Sugarbeets [7, 20] | Plant response rating, Sugarbeets [7, 21] | Sugarbeets plant response rating [7, 23] | Wild oats plant response rating [8, 17] | Wild oats plant response rating [8, 18] | Plant response rating, Wild oats [8, 20] | Wild oats plant response rating [8, 23] | Corn plant response rating [9, 17] | Corn plant response rating [9, 18] | Plant response rating, Corn [9, 19] | Plant response rating, Corn [9, 20] | Plant response rating, Corn [9, 21] | Corn plant response rating [9, 22] | Corn plant response rating [9, 23] | Corn plant response rating [9, 24] | Crabgrass plant response rating [10, 17] | Crabgrass plant response rating [10, 23] | Plant response rating, Bedstraw [11, 19] | Plant response rating, Bedstraw [11, 20] | Plant response rating, Bedstraw [11, 21] | Bedstraw plant response rating [11, 22] | Wheat plant response rating [12, 17] | Wheat plant response rating [12, 18] | Plant response rating, Wheat [12, 19] | Plant response rating, Wheat [12, 20] | Plant response rating, Wheat [12, 21] | Wheat plant response rating [12, 23] | Rice plant response rating [13, 17] | Rice plant response rating [13, 25] | Rice plant response rating [13, 26] | Rice plant response rating [13, 27] | Barnyardgrass plant response rating [14, 17] | Barnyardgrass plant response rating [14, 25] | Barnyardgrass plant response rating [14, 26] | Barnyardgrass plant response rating [14, 27] | Rape plant response rating [15, 17] | Rape plant response rating [15, 18] | Plant response rating, Rape [15, 19] | Plant response rating, Rape [15, 20] | Plant response rating, Rape [15, 21] | Rape plant response rating [15, 23] | Rape plant response rating [15, 24] | Redroot pigweed plant response rating [16, 17] | Plant response rating, Redroot pigweed [16, 19] | Redroot pigweed plant response rating [16, 23]
3: B. signalgrass plant response rating [2, 22] | Plant response rating, Blackgrass [5, 19] | Crabgrass plant response rating [10, 18] | Rape plant response rating [15, 22]
4: Cocklebur plant response rating [3, 24] | Sugarbeets plant response rating [7, 22] | Bedstraw plant response rating [11, 17] | Bedstraw plant response rating [11, 23]
1: Plant response rating, B. signalgrass [2, 20] | Morningglory plant response rating [4, 17]
2: Plant response rating, B. signalgrass [2, 21] | Morningglory plant response rating [4, 23] | Blackgrass plant response rating [5, 23] | Giant foxtail plant response rating [6, 18] | Plant response rating, Giant foxtail [6, 19] | Plant response rating, Wild oats [8, 21] | Wheat plant response rating [12, 22] | Plant response rating, Redroot pigweed [16, 20]
10: Plant response rating, Giant foxtail [6, 21] | Giant foxtail plant response rating [6, 22] | Plant response rating, Crabgrass [10, 21] | Crabgrass plant response rating [10, 22]
8: Morningglory plant response rating [4, 24] | Giant foxtail plant response rating [6, 24]
